{
  "source": "patent US20020064500A1",
  "about": "“Radiotracers for in vivo study of acetylcholinesterase and alzheimer's disease” (priority 1999, published 2002)",
  "key": {"acetylcholinesterase [1]": {"molecular_target": "T1, acetylcholinesterase (Mus musculus, UniProt P21836)", "T1 construct": "from tissue; host or cells: brain regions of CD-1 mice after intravenous injection", "T1 sequence (P21836 32-614)": "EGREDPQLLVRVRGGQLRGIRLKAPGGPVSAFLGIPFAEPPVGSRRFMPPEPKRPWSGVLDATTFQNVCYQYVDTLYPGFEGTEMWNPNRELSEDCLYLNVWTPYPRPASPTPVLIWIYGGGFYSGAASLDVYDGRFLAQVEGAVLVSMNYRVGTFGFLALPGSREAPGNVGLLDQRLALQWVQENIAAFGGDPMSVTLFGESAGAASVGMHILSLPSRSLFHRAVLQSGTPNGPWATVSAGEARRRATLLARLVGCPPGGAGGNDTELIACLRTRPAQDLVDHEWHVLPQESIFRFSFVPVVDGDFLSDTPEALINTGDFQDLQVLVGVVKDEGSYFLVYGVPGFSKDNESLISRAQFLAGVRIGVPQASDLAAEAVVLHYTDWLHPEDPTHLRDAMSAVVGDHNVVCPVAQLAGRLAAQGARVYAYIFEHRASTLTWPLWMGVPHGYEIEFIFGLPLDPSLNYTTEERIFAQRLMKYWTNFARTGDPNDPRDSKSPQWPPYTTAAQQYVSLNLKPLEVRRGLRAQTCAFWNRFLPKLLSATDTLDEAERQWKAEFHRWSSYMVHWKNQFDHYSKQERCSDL", "experiment": "Kinetic experiment: regional brain biodistribution in mice", "assay_type": "in vivo, male Charles River mice (CD-1)", "conditions": "for percentage of the administered dose/gram of brain tissue (%ID/g): 5 minutes post i.v. injection, mean of 3", "experimental": "21 male Charles River mice (CD-1) were divided into 7 groups of 3 mice each. Each mouse was injected via a tail vein with approximately 350 μCi of compound II (10 μg). Each mouse was sacrificed by cervical dislocation at the following times post injection: group 1 at 5 minutes; group 2 at 15 minutes; group 3 at 30 minutes; group 4 at 45 minutes; group 5 at 60; group 6 at 90 minutes; and group 7 at 120 minutes. At the time of sacrifice of a particular group, the brains of each mouse were quickly removed and dissected on ice. The following regions were collected weighed and assayed for radioactivity: cerebellum, hippocampus, striatum, parietal cortex, thalamus. The following values, averaged over each group of three mice, for the percentage of the administered dose of compound II/gram of brain tissue (%ID/g), were found in the following brain regions at five minutes post injection: striatum (6.19% injected dose/gram tissue); thalamus (4.76%); cortex (4.01%); cerebellum (3.76%); and hippocampus (3.41%)."}, "acetylcholinesterase [2]": {"molecular_target": "acetylcholinesterase (Homo sapiens, UniProt P22303)", "sequence (P22303 32-614)": "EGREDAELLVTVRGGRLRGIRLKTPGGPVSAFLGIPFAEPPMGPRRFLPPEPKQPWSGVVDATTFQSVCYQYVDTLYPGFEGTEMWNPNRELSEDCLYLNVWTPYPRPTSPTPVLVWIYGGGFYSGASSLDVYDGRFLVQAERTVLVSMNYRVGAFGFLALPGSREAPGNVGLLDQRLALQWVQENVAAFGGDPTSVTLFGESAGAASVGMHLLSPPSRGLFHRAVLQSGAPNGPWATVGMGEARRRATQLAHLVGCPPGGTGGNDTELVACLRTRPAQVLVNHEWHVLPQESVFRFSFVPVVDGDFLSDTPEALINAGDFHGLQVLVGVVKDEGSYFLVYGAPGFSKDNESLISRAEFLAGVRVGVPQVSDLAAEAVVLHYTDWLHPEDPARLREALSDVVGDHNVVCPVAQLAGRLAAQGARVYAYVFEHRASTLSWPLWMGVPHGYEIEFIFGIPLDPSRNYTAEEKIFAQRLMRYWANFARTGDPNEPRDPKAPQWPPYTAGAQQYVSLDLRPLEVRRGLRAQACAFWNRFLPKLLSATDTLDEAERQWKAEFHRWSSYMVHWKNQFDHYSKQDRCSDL", "experiment": "PET imaging of acetylcholinesterase in a human brain, with and without ARICEPT", "conditions": "for Normalized uptake (nCi/ccBRAIN/nCi/ccPLASMA): healthy human subject, i.v., PET, average of scans after 42 minutes; for Normalized uptake post 5 mg ARICEPT (nCi/ccBRAIN/nCi/ccPLASMA): same subject, 3 hours after oral 5 mg ARICEPT tablet"}, "acetylcholinesterase [3]": {"molecular_target": "T1, acetylcholinesterase", "experiment": "Dose response experiment: blocking of compound II brain binding by compound III in mice", "assay_type": "in vivo", "conditions": "5 minutes before compound II i.v.", "experimental": "Male Charles River mice (CD-1) were divided into 5 groups of 3 mice each. Non-radiolabeled compound III was administered to each mouse in increasing doses as follows: group1, saline controls; group 2, 0.01 mg/kg; group 3, 0.1 mg/kg; group 4, 0.3 mg/kg; and group 5,1 mg/kg. Five minutes after the injection with compound III or the saline control, each mouse was administered compound II (421 μCi, 8 μg) by intravenous injection as above. Each mouse was sacrificed by cervical dislocation and brain tissue dissected and the radioactivity of each brain region assayed as described above. The values, averaged over each group of three mice, for the percentage of the administered dose of compound II/gram of brain tissue at each dosage of compound III for each brain region were calculated (FIG. 4 below)."}},
  "data": [
    {"smiles": "[11CH3]N1C(=O)Cc2cc3c(CCC4CCN(Cc5ccccc5)CC4)noc3cc21", "note": "[compound II, 5,7-dihydro-7-[^11C]-methyl-3-[2-[1-(phenylmethyl)4-piperidinyl]ethyl]-6H-pyrrolo[3,2-f]-1,2-benzisoxazole-6-one]", "values": [
      {"measurement": "highest specific binding defined as striatum-cerebellum", "setting": "acetylcholinesterase [1]; 30 minutes post i.v. injection", "result": 4.33, "unit": "%"},
      {"measurement": "percentage of the administered dose/gram of brain tissue (%ID/g)", "setting": "acetylcholinesterase [1]; cerebellum", "result": 3.76, "unit": "%"},
      {"measurement": "percentage of the administered dose/gram of brain tissue (%ID/g)", "setting": "acetylcholinesterase [1]; cortex", "result": 4.01, "unit": "%"},
      {"measurement": "percentage of the administered dose/gram of brain tissue (%ID/g)", "setting": "acetylcholinesterase [1]; hippocampus", "result": 3.41, "unit": "%"},
      {"measurement": "percentage of the administered dose/gram of brain tissue (%ID/g)", "setting": "acetylcholinesterase [1]; striatum", "result": "6.19 % injected dose/gram tissue"},
      {"measurement": "percentage of the administered dose/gram of brain tissue (%ID/g)", "setting": "acetylcholinesterase [1]; thalamus", "result": 4.76, "unit": "%"},
      {"measurement": "Normalized uptake (nCi/ccBRAIN/nCi/ccPLASMA)", "setting": "acetylcholinesterase [2]; Caudate", "result": 54, "unit": "nCi/ccBRAIN/nCi/ccPLASMA"},
      {"measurement": "Normalized uptake post 5 mg ARICEPT (nCi/ccBRAIN/nCi/ccPLASMA)", "setting": "acetylcholinesterase [2]; Caudate", "result": 19, "unit": "nCi/ccBRAIN/nCi/ccPLASMA"},
      {"measurement": "Normalized uptake (nCi/ccBRAIN/nCi/ccPLASMA)", "setting": "acetylcholinesterase [2]; Cerebellum", "result": 47, "unit": "nCi/ccBRAIN/nCi/ccPLASMA"},
      {"measurement": "Normalized uptake post 5 mg ARICEPT (nCi/ccBRAIN/nCi/ccPLASMA)", "setting": "acetylcholinesterase [2]; Cerebellum", "result": 13, "unit": "nCi/ccBRAIN/nCi/ccPLASMA"},
      {"measurement": "Normalized uptake (nCi/ccBRAIN/nCi/ccPLASMA)", "setting": "acetylcholinesterase [2]; Frontal cortex", "result": 26, "unit": "nCi/ccBRAIN/nCi/ccPLASMA"},
      {"measurement": "Normalized uptake post 5 mg ARICEPT (nCi/ccBRAIN/nCi/ccPLASMA)", "setting": "acetylcholinesterase [2]; Frontal cortex", "result": 7, "unit": "nCi/ccBRAIN/nCi/ccPLASMA"},
      {"measurement": "Normalized uptake (nCi/ccBRAIN/nCi/ccPLASMA)", "setting": "acetylcholinesterase [2]; Hippocampus", "result": 30, "unit": "nCi/ccBRAIN/nCi/ccPLASMA"},
      {"measurement": "Normalized uptake (nCi/ccBRAIN/nCi/ccPLASMA)", "setting": "acetylcholinesterase [2]; Medulla Oblongata", "result": 40, "unit": "nCi/ccBRAIN/nCi/ccPLASMA"},
      {"measurement": "Normalized uptake (nCi/ccBRAIN/nCi/ccPLASMA)", "setting": "acetylcholinesterase [2]; Occipital cortex", "result": 23, "unit": "nCi/ccBRAIN/nCi/ccPLASMA"},
      {"measurement": "Normalized uptake (nCi/ccBRAIN/nCi/ccPLASMA)", "setting": "acetylcholinesterase [2]; Parietal cortex", "result": 27, "unit": "nCi/ccBRAIN/nCi/ccPLASMA"},
      {"measurement": "Normalized uptake post 5 mg ARICEPT (nCi/ccBRAIN/nCi/ccPLASMA)", "setting": "acetylcholinesterase [2]; Parietal cortex", "result": 7, "unit": "nCi/ccBRAIN/nCi/ccPLASMA"},
      {"measurement": "Normalized uptake (nCi/ccBRAIN/nCi/ccPLASMA)", "setting": "acetylcholinesterase [2]; Pons", "result": 36, "unit": "nCi/ccBRAIN/nCi/ccPLASMA"},
      {"measurement": "Normalized uptake (nCi/ccBRAIN/nCi/ccPLASMA)", "setting": "acetylcholinesterase [2]; Putamen", "result": 61, "unit": "nCi/ccBRAIN/nCi/ccPLASMA"},
      {"measurement": "Normalized uptake post 5 mg ARICEPT (nCi/ccBRAIN/nCi/ccPLASMA)", "setting": "acetylcholinesterase [2]; Putamen", "result": 26, "unit": "nCi/ccBRAIN/nCi/ccPLASMA"},
      {"measurement": "Normalized uptake (nCi/ccBRAIN/nCi/ccPLASMA)", "setting": "acetylcholinesterase [2]; Temporal cortex", "result": 26, "unit": "nCi/ccBRAIN/nCi/ccPLASMA"},
      {"measurement": "Normalized uptake (nCi/ccBRAIN/nCi/ccPLASMA)", "setting": "acetylcholinesterase [2]; Thalamus", "result": 33, "unit": "nCi/ccBRAIN/nCi/ccPLASMA"}
    ]},
    {"smiles": "O=C1Cc2cc3c(CCC4CCN(Cc5ccccc5)CC4)noc3cc2N1", "note": "[compound III, 5,7-dihydro-3-[2-[1-(phenylmethyl)-4-piperidinyl]ethyl]-6H-pyrrolo[3,2-f]-1,2-benzisoxazole-6-one]", "values": [
      {"measurement": "reduction of compound II binding in striatum relative to the saline control", "setting": "acetylcholinesterase [3]; compound III 0.1 mg/kg", "result": 6, "unit": "%"},
      {"measurement": "reduction of compound II binding in striatum relative to the saline control", "setting": "acetylcholinesterase [3]; compound III 0.3 mg/kg", "result": 20, "unit": "%"},
      {"measurement": "reduction of compound II binding in striatum relative to the saline control", "setting": "acetylcholinesterase [3]; compound III 1 mg/kg", "result": 52, "unit": "%"}
    ]}
  ]
}
